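Values below derive from 48-hour exposures of cells grown in 96-well plates, with endpoints linearly interpolated between the two concentrations bracketing the appropriate inhibition level. The concentration for 50% growth inhibition is given as GI50.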 The source made the active and inactive calls. No stated cut-off is given here; in the data, active = GI50 up to about 1.1 µM and inactive = higher.
Legend:
Test in all cases: NCI anticancer screen, dose series, 48 h
HT-29 = system: HT-29
Hs-578T = system: Hs-578T
RPMI-8226 = system: RPMI-8226
SK-MEL-5 = system: SK-MEL-5
U-251 = system: U-251
SK-MEL-2 = system: SK-MEL-2
MCF7 = system: MCF7
NCI/ADR-RES = system: NCI/ADR-RES
786-0 = system: 786-0
SW-620 = system: SW-620
Malme-3M = system: Malme-3M
MOLT-4 = system: MOLT-4
BT-549 = system: BT-549
KM12 = system: KM12
UACC-257 = system: UACC-257
HCT-15 = system: HCT-15
PC-3 = system: PC-3
A549 = system: A549
HCC 2998 = system: HCC 2998
SN12C = system: SN12C

Row | SMILES | GI50 (HT-29) | GI50 (Hs-578T) | GI50 (RPMI-8226) | GI50 (SK-MEL-5) | GI50 (U-251) | GI50 (SK-MEL-2) | GI50 (MCF7) | GI50 (NCI/ADR-RES) | GI50 (786-0) | GI50 (SW-620) | GI50 (Malme-3M) | GI50 (MOLT-4) | GI50 (BT-549) | GI50 (KM12) | GI50 (UACC-257) | GI50 (HCT-15) [µM] | GI50 (PC-3) | GI50 (A549) | GI50 (HCC 2998) | GI50 (SN12C)
1 | C/C=C\C(CC(=O)NCCc1c[nH]c2ccccc12)CC(=O)OC (configuration not stated) | > 100 µM (inactive) | > 100 µM (inactive) | > 100 µM (inactive) | > 100 µM (inactive) | > 100 µM (inactive) | > 100 µM (inactive) | > 100 µM (inactive) | > 100 µM (inactive) | > 100 µM (inactive) | > 100 µM (inactive) | > 100 µM (inactive) | > 100 µM (inactive) | > 100 µM (inactive) | > 100 µM (inactive) | > 100 µM (inactive) | > 100 | > 100 µM (inactive) | > 100 µM (inactive) | > 100 µM (inactive) | 
2 | COC(=O)/C(C#N)=C(/NCCN)Nc1ccccc1 | > 100 µM (inactive) | > 100 µM (inactive) | > 100 µM (inactive) | > 100 µM (inactive) | > 100 µM (inactive) | > 100 µM (inactive) | > 100 µM (inactive) | > 100 µM (inactive) | > 100 µM (inactive) | > 100 µM (inactive) | > 100 µM (inactive) | > 100 µM (inactive) | > 100 µM (inactive) |  | > 100 µM (inactive) | > 100 | > 100 µM (inactive) | > 100 µM (inactive) | > 100 µM (inactive) | > 100 µM (inactive)
3 | CC(=O)C(C(=O)c1ccc(C)cc1)[C@H]1OC(C)(C)O[C@H]1[C@H]1COC(C)(C)O1 (some centres not stated) | 2.2 µM (inactive) | 3.08 µM (inactive) | 1.6 µM (inactive) | 5.08 µM (inactive) | 1.91 µM (inactive) | 2.92 µM (inactive) | 1.97 µM (inactive) | 4.54 µM (inactive) | 2.88 µM (inactive) | 1.84 µM (inactive) | 6.92 µM (inactive) | 1.66 µM (inactive) | 6.3 µM (inactive) | 8.75 µM (inactive) | 5.31 µM (inactive) | 2.99 | 2.55 µM (inactive) | 11.2 µM (inactive) | 7.24 µM (inactive) | 1.9 µM (inactive)
4 | Cc1ccc(NC(=O)c2cc(S(=O)(=O)Nc3n[nH]c(=O)n3-c3ccccc3)c(S)cc2Cl)cc1 | > 100 µM (inactive) | > 100 µM (inactive) | > 100 µM (inactive) | > 100 µM (inactive) | > 100 µM (inactive) | > 100 µM (inactive) | > 100 µM (inactive) | > 100 µM (inactive) | > 100 µM (inactive) | > 100 µM (inactive) | > 100 µM (inactive) | > 100 µM (inactive) | > 100 µM (inactive) | > 100 µM (inactive) | > 100 µM (inactive) | > 100 | > 100 µM (inactive) | > 100 µM (inactive) | > 100 µM (inactive) | > 100 µM (inactive)
5 | c1ccc2c(c1)Sc1nccc3ccnc-2c13 | 11.9 µM (inactive) | 14 µM (inactive) | 55.5 µM (inactive) | 19.1 µM (inactive) | 23.9 µM (inactive) | > 100 µM (inactive) | 12.6 µM (inactive) | 25.2 µM (inactive) | 80.4 µM (inactive) | 19.3 µM (inactive) | 31.6 µM (inactive) | 8.26 µM (inactive) | 77.1 µM (inactive) | 61 µM (inactive) | 73.6 µM (inactive) | > 10 | 39.2 µM (inactive) |  | 33.3 µM (inactive) | 39 µM (inactive)
6 | Nc1nc(Cl)cc(NCC2(CO)CC(CCCc3ccccc3)C2)n1 (configuration not stated) | 25.4 µM (inactive) | > 64.4 µM (inactive) | > 100 µM (inactive) | 0.31 µM (active) | > 85.3 µM (inactive) | > 100 µM (inactive) | 0.0492 µM (active) | 4.86 µM (inactive) | > 81.7 µM (inactive) | > 100 µM (inactive) | > 100 µM (inactive) | > 26.9 µM (inactive) | > 100 µM (inactive) | > 100 µM (inactive) | 0.242 µM (active) | > 100 | > 81.3 µM (inactive) | 14.7 µM (inactive) | > 100 µM (inactive) | > 36.6 µM (inactive)
7 | COC(=O)n1c(=O)n(-c2ccccc2)c(=O)n1C(=O)OC | > 100 µM (inactive) | > 100 µM (inactive) | > 100 µM (inactive) | > 100 µM (inactive) | > 100 µM (inactive) | > 100 µM (inactive) | > 100 µM (inactive) | > 100 µM (inactive) | > 100 µM (inactive) | > 100 µM (inactive) | > 100 µM (inactive) | > 100 µM (inactive) | > 100 µM (inactive) | > 100 µM (inactive) | > 100 µM (inactive) | > 100 | > 100 µM (inactive) | > 100 µM (inactive) | > 100 µM (inactive) | > 100 µM (inactive)

From ChEMBL document CHEMBL1201862, “PubChem BioAssay data set” (2004)
